{
  "source": "patent US11952379B2",
  "about": "“Small molecule modulators of PAR2 and uses thereof” (Arizona Board of Regents on Behalf of the University of …, priority 2018, dated 2024)",
  "key": {"[1]": {"system": "PAR2-dependent Ca^2+ signaling", "test": "PAR2-dependent Ca2+ signaling", "format": "cell-based", "protocol": "Addition of 1.75 μM of the potent PAR2 agonist 2at-LIGRL-NH2 (C134) induced Ca^2+ signaling in 50% of the cells within the experiment."}, "[2]": {"system": "PAR2-dependent MAPK signaling", "test": "PAR2-dependent MAPK signaling (MAPK phosphorylation)", "format": "cell-based"}, "[3]": {"biological_target": "T1, PAR2 (Mus musculus, UniProt P55086)", "T1 construct": "from tissue; host or cells: live mice, hindpaw", "T1 sequence (P55086 26-399)": "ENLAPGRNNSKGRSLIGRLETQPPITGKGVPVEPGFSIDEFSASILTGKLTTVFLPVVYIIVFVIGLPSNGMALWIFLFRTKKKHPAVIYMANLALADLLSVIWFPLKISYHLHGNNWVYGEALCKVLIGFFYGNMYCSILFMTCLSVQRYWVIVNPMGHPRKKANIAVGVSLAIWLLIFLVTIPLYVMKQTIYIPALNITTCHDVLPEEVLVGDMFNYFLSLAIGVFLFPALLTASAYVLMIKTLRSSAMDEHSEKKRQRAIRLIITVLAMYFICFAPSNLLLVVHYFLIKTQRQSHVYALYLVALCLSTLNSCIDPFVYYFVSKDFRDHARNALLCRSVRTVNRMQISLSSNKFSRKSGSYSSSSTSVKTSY", "test": "Mechanical hypersensitivity / paw withdrawal response to PAR2 agonist 2AT injected into the hindpaw", "format": "in vivo", "conditions": "mice", "protocol": "Experiments were conducted to test C781 in vivo in mice for its ability to block mechanical hypersensitivity (a pain measure) in response to a PAR2 agonist (2AT-LIGRL, also known as 2AT).\nAnimals were injected with 2at (black), 2at+C781(yellow), or C781 alone (green).\nAnimals were systemically treated with C781 or control and then local injected with 2at (black with control; yellow with C781) or with vehicle alone (green). […] This is important because previous PAR2 antagonists have not had systemic bioavailability and have only worked with very high doses via intravenous injection."}, "[4]": {"biological_target": "T2, PAR2 (Homo sapiens, UniProt P55085)", "T2 sequence (P55085 26-397)": "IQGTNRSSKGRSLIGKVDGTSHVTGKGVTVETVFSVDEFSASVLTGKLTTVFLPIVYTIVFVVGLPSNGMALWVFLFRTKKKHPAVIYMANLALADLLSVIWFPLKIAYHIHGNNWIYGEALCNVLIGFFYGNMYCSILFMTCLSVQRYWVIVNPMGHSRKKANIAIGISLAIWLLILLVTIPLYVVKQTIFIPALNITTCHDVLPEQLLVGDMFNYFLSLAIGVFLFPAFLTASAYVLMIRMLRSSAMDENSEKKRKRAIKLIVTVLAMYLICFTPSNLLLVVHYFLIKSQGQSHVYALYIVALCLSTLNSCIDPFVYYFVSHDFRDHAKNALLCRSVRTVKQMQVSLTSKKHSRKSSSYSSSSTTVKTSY", "test": "Inhibition of PAR2 response induced by 2at-LIGRL-NH2 (FIG. 1)", "format": "cell-based", "conditions": "antagonist against agonist 2at-LIGR1-NH2"}, "[5]": {"biological_target": "T1, PAR2", "test": "2AT-evoked hyperalgesic priming in the hindpaw", "format": "in vivo", "conditions": "given locally into the mouse hindpaw; FIG. 3"}},
  "data": [
    {"compound": "2-aminothiazol-LIGRL-NH2 [2at-LIGRL-NH2, reference compound]", "values": [
      {"measurement": "cells showing Ca2+ signaling", "setting": "[1]; agonist at 1.75 μM, percent of the cells within the experiment", "value": 50, "unit": "%"},
      {"measurement": "induction of MAPK phosphorylation", "setting": "[2]; agonist at 600 nM, set as 100% response", "value": "induced significant phosphorylation of MAPK"},
      {"measurement": "paw withdrawal response (pain) induced by agonist", "setting": "[3]; 2at injected into hindpaw, lower numbers indicative of pain", "value": "induced a rapid withdrawal response"}
    ]},
    {"compound": "CC(C)CC(=O)N1C[C@H](NC(=O)c2csc(N)n2)C(=O)N2C1CN(CC1CCNCC1)C(=O)[C@@H]2CC(C)C", "note": "(stereo partly drawn) [C732]", "values": [
      {"measurement": "concentration at which the 2at-LIGR1-NH2-induced PAR2 response was fully limited / compound was effective", "setting": "[4]", "value": "100 to 300", "unit": "nM"}
    ]},
    {"compound": "CC(C)CC(=O)N[C@H]1CN(C(=O)c2ccco2)C2CN(CC3CCNCC3)C(=O)[C@H](CC(C)C)N2C1=O", "note": "(stereo partly drawn) [C781]", "values": [
      {"measurement": "concentration at which the 2at-LIGR1-NH2-induced PAR2 response was fully limited / compound was effective", "setting": "[4]", "value": "30 to 300", "unit": "nM"},
      {"measurement": "effect on PAR2-dependent Ca2+ signaling", "setting": "[1]; administered with 1.75 μM 2at-LIGRL-NH2 (C134), FIG. 6", "value": "no significant effect"},
      {"measurement": "IC50", "setting": "[2]; response induced by 600 nM 2at-LIGRL-NH2 (100% response), 95% CI: 3.4 μM-21 μM, FIG. 5, read-out: IC50 for reduction of PAR2-dependent MAPK phosphorylation", "value": 8.5, "unit": "µM"},
      {"measurement": "effect on 2AT-evoked hyperalgesic priming", "setting": "[5]", "value": "blocked 2AT-evoked hyperalgesic priming"},
      {"measurement": "effect on 2at-induced paw withdrawal response (pain)", "setting": "[3]; C781 given intraperitoneally 30 min prior to 2AT injection into the hindpaw, FIG. 4", "value": "reduced the 2at response"},
      {"measurement": "effect on paw withdrawal response of compound alone", "setting": "[3]; C781 injected locally with vehicle alone (no 2at), FIG. 2", "value": "had no effect"},
      {"measurement": "effect on 2at-induced paw withdrawal response (pain)", "setting": "[3]; C781 locally administered into hindpaw together with 2at, FIG. 2", "value": "reduced the 2at response"},
      {"measurement": "effect on paw withdrawal response after vehicle injection", "setting": "[3]; systemically administered C781, local vehicle alone, FIG. 4", "value": "had no effect on vehicle treatment"}
    ]}
  ]
}
